Experiment [1] concerns Septoria tritici (SEPTTR). Put plainly: 3-day curative test (3DC) vs. leaf blotch of wheat. Format: in vivo. Conditions: Zymoseptoria tritici; 3DC SEPTTR; application rate 1.5 g ai/Ha; SC formulation, track sprayer; read-out: % DC Obs (percent disease control observed). Here is the method:
(§1) Evaluation of Curative and Protectant Activity of Fungicide Mixtures vs. Leaf Blotch of Wheat (Mycosphaerella graminicola; anamorph: Septoria tritici; Bayer code: SEPTTR)
(§2) Wheat plants (variety Yuma) were grown from seed in a greenhouse in plastic pots with a surface area of 27.5 square centimeters (cm2) containing 50% mineral soil/50% soil-less Metro mix, with 8-12 seedlings per pot. The plants were employed for testing when the first leaf was fully emerged, which typically took 7 to 8 days after planting. Test plants were inoculated with an aqueous spore suspension of Septoria tritici either 3-days prior to (3-day curative test; 3DC) or 1-day after fungicide treatments (1-day protectant test; 1DP). After inoculation the plants were kept at 100% relative humidity (one day in a dark dew chamber followed by two days in a lighted mist chamber) to permit spores to germinate and infect the leaf. The plants were then transferred to a greenhouse until disease symptoms were fully expressed.
(§3) For the mixture studies with compound of Formula IA: Treatments consisted of fungicides, including a compound of Formula IA, epoxiconazole, prothioconazole, azoxystrobin, pyraclostrobin, penthiopyrad, isopyrazam, bixafen, boscalid, prochloraz, chlorothalonil, and isobutyric acid (3S,6S,7R,8R)-8-benzyl-3-[(3-isobutyryloxymethoxy-4-methoxypyridine-2-carbonyl)-amino]-6-methyl-4,9-dioxo-[1,5]dioxonan-7-yl ester (compound A), applied either individually or as two-way mixtures with a compound of Formula IA. Technical grades of materials were dissolved in acetone to make stock solutions, which were then used to perform three-fold dilutions in acetone either for each individual fungicide component or for the two-way mixtures. Desired fungicide rates were obtained after mixing dilutions with nine volumes of water containing 110 parts per million (ppm) Triton X-100. Ten mL fungicide solutions were applied onto six pots of plants using an automated booth sprayer, which utilized two 6218-1/4 JAUPM spray nozzles operating at 20 pounds per square inch (psi) set at opposing angles to cover both leaf surfaces. All sprayed plants were allowed to air dry prior to further handling. Control plants were sprayed in the same manner with the solvent blank.
(§4) For the mixture studies with compound of Formula IB: Compound IB and the compound B or their two-way mixtures were diluted in three-fold series using suspension concentrate (SC) formulations in 0.1% Trycol 5941. Spray solutions were applied onto plants using a track sprayer with an application volume of 200 Liters/hectare (L/Ha).
(§5) When disease reached 80 to 100% on the control plants, infection levels were assessed on treated plants visually and scored on a scale of 0 to 100 percent. Percentage of disease control was then calculated using the ratio of disease on treated plants relative to control plants.
(§6) Colby's equation was used to determine the fungicidal effects expected from the mixtures. (See Colby, S. R. Calculation of the synergistic and antagonistic response of herbicide combinations. Weeds 1967, 15, 20-22.)
(§7) The following equation was used to calculate the expected activity of mixtures containing two active ingredients, A and B:
(§8) A=observed efficacy of active component A at the same concentration as used in the mixture;
(§9) B=observed efficacy of active component B at the same concentration as used in the mixture.

Experiment [2] concerns Septoria tritici (SEPTTR). Put plainly: 1-day protectant test (1DP) vs. leaf blotch of wheat. Format: in vivo. Conditions: Zymoseptoria tritici; 1DP SEPTTR; application rate 1.5 g ai/Ha; SC formulation, track sprayer; read-out: % DC Obs (percent disease control observed). How it is done: as §1, §2, §3, §4, §5, §6, §7, §8, §9

Molecules are shown by their SMILES.

For the compound `Fc1cc(Oc2cc(C(F)(F)F)ccn2)ccc1CCNc1ncnc2c(F)ccc(F)c12` [B, (5,8-Difluoroquinazolin-4-yl)-{2-[2-fluoro-4-(4-trifluoromethylpyridin-2-yloxy)-phenyl]-ethyl}-amine], the figures for the pest or weed control at 1.5 g/ha in experiment [1] and in experiment [2] were 41% and 36%, respectively.
